Experimental data reported in patent US12440443B2, “Nano-emulsion of CBFβ-RUNX1 inhibitor for ocular drug deliver” (Massachusetts Eye and Ear Infirmary, priority 2017, dated 2025).

Assay: Solubility behaviour of Ro5-3335 in aqueous solution
Format: physicochemical
Excerpt: The invention provides a solution to many problems and/or drawbacks of earlier ocular formulations and features a nano-emulsion composition, e.g., a nano-emulsion comprising a core binding factor β (CBFβ)-Runt-Related Transcription Factor 1 (RUNX1) (CBFβ-RUNX1) inhibitor. […] With our emulsion, we have devised a composition to encapsulate the drug in a nanonsphere, which allows for suspension in an aqueous solution, and increases availability of the drug, and also improves penetration of ocular tissues.

## O=C1CN=C(c2ccc[nH]2)c2cc(Cl)ccc2N1 [Ro5-3335, 7-chloro-1,3-dihydro-5-(1h-pyrrol-2y-yl)-2H-1,4-benzodiazepin-2-one]
  solubility in aqueous solution: insoluble in aqueous solution
